According to patent publication US20220062296A1, “COMBINATIONS OF GABAA ALPHA 5 AGONISTS AND SV2A INHIBITORS AND METHODS OF USING IN THE TREATMENT OF COGNITIVE IMPAIRMENT” (AGENEBIO, INC., priority 2020, published 2022):

What was measured:
[1] = test system: aged-impaired (AI) Long-Evans rats; test: Morris Water Maze (MWM) retention trial, levetiracetam; format: in vivo, rat; settings: for time spent in the target quadrant (percentage of total swimming time): retention trial 24 hours after training
Experimental: Six aged-impaired (AI) Long-Evans rats (as characterized above) were tested for their memory of new spatial information in the Morris water maze (MWM), under different drug/control treatment conditions (vehicle control and two different dosage levels of levetiracetam). A retention trial was performed after the training trials, as described below. The MWM apparatus consists of a large, circular pool (diameter 1.53 m; height, 0.58 m) filled with water (27° C.) that is made opaque through the addition of non-toxic pigment or some other substance. In the typical “hidden platform” version of the test, rats are trained to find a camouflaged white escape platform (height, 34.5 cm) that is positioned in the center of one quadrant of the maze about 1.0 cm below the water surface. This platform can be retracted to the bottom of the tank or raised to its normal position from outside the maze during behavioral testing. The location of the platform remains constant from trial to trial. Because there are no local cues that mark the position of the platform, the rat's ability to locate it efficiently from any starting position at the perimeter of the pool depends on using information surrounding the maze. The maze is surrounded by black curtains to which white patterns are affixed to provide a configuration of spatial cues. A second platform (height 37.5 cm), with its surface painted black is elevated 2 cm above the water surface during cue training to control for factors unrelated to cognition. The behavior of a rat in the pool is recorded by a camera that is suspended 2.5 m above the center of the pool. The camera is connected to a video tracking system (HVS Image Advanced Tracker VP200) and a PC computer running HVS software developed by Richard Baker of HVS Image, Hampton, UK. […] On each training trial, the rat was released in the maze from one of four equally spaced starting positions around the perimeter of the pool. […] In the retention trial, the time the AI rats spent swimming in the target quadrant is measured and further plotted as a percentage of total swimming time. […]

[2] = test system: entorhinal cortex of aMCI subjects; test: fMRI activity in entorhinal cortex (EC) during explicit 3-alternative forced choice task; format: in vivo, human; settings: levetiracetam 125 mg twice a day for two weeks
Experimental: A within-subjects trial of 8 weeks duration, involving 17 amnestic MCI (aMCI) subjects and 17 age-matched controls with a low dose treatment of levetiracetam is conducted. During the course of the study, each aMCI subject receives both drug and placebo treatments separately in two periods of two weeks each, with the order of treatments among different aMCI subjects counterbalanced (see FIG. 4). Age-matched control subjects treated with placebo serve as a further control. Cognitive testing and fMRI imaging data are obtained from the subjects after each two-week period of drug/placebo treatment. Imaging data are obtained through high-resolution methods developed in the Stark laboratory. Data are collected on a Phillips 3 Tesla scanner (Eindhoven, The Netherlands) equipped with an 8-channel SENSE (Sensitivity Encoding) head coil, located at the F.M. Kirby Research Center for Functional Brain Imaging at the Kennedy Krieger Institute (Baltimore, Md.). […] Group data are analyzed using a two-way Analysis of Variance (ANOVA) with trial types and group as fixed factors, and subject as a random factor nested within group. […] The activity of the subject's medial temporal lobe is measured by functional MRI during the subject's participation in an explicit 3-alternative forced choice task, where participants view novel, repeated and similar (“lure”) stimuli. […]

DG/CA3 of aMCI subjects = test: fMRI activity in DG/CA3 during explicit 3-alternative forced choice task; format: in vivo, human; settings: for DG/CA3 hyperactivity: two weeks

Q: `CC[C@@H](C(N)=O)N1CCCC1=O` [levetiracetam, (2S)-2-(2-oxopyrrolidin-1-yl)butanamide] was tested. Which “time spent in the target quadrant (percentage of total swimming time)” value ([1]; levetiracetam 5 mg/kg/day i.p., vs vehicle) did it give?
A: did not significantly improve

Q: What about the “time spent in the target annulus” value ([1]; levetiracetam 10 mg/kg/day i.p., retention trial) of the same molecule?
A: effectiveness of the 10 mg/kg/day levetiracetam treatment was also seen

Q: What about the “time spent in the target quadrant (percentage of total swimming time)” value ([1]; levetiracetam 10 mg/kg/day i.p.) of the same molecule?
A: approximately 35%

Q: And the “EC activity during memory judgments” value [2]?
A: increases EC activity

Q: What about the DG/CA3 hyperactivity (DG/CA3 of aMCI subjects; levetiracetam 62.5 mg BID cohort) of the same molecule?
A: does not significantly reduce

Q: And the “DG/CA3 activity during lure stimuli correctly identified as similar” value (DG/CA3 of aMCI subjects; levetiracetam 125 mg twice a day for two weeks, vs placebo, p=0.037)?
A: reduces DG/CA3 hyper-activity

Q: What about the DG/CA3 hyperactivity (DG/CA3 of aMCI subjects; levetiracetam 250 mg BID cohort) of the same molecule?
A: does not significantly reduce
